Measured values: article PMC4699555 (Journal of pharmaceutical sciences, 2012)
Where two headings read alike, the source gives them in different places.

Legend:
[1] = format: in vivo, Sprague-Dawley rats
[2] = cited from earlier work
[3] = human studies; cited from earlier work
[4] = cited from earlier work; remark: listed apart in the source
[5] = cited from earlier work; remark: listed apart in the source
[6] = cited from earlier work; remark: listed apart in the source

Compound | Time up to which the metabolite could be detected in rat serum ([1]; after i.v. (10 mg/kg) and oral (50 mg/kg) vorinostat) | Detection of metabolite in urine ([1]; rats, after i.v. and oral vorinostat) | Elimination half-life ([2]; animal studies) | Oral bioavailability ([2]; rats, oral 10 mg/kg) [%] | Tmax ([2]; rats, oral 10 mg/kg) [min] | Elimination half-life [3] | Aqueous solubility [4] [µg/mL] | Log partition coefficient [5] | Biopharmaceutics Classification System (BCS) class [6]
O=C(O)CCC(=O)Nc1ccccc1 [4-anilino-4-oxobutanoic acid] | up to 12 h | detected | – | – | – | – | – | – | –
O=C(CCCCCCC(=O)Nc1ccccc1)NO [Vorinostat, suberoylanilide hydroxamic acid] | – | – | approximately 2 hours | 11 | 18 ± 6 | approximately 2 hours | 200 | 1.9 | Class IV
